≈ marks a conversion by molar mass, not a printed value. Read-outs that look alike come from different tables or passages of the source.
Tests used:
[1] = tested on: a number of micro-organisms; conditions: cited from earlier work
A. baumannii = test: microbe, parasite or virus in culture; conditions: A. baumannii (n = 10), Table 5
How it was run: (§1)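 CLSI broth microdilution (M100-S18) with polymers at 1–512 μg/ml mixed with an equal volume of inoculum prepared at 0.5 McFarland, final 10^5 CFU/ml. Bacteria were grown in Mueller-Hinton broth and yeasts in Sabouraud dextrose broth, shaken in a closed incubator. Growth was read at 600 nm; duplicate determinations.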

E. cloacae complex = test: microbe, parasite or virus in culture
How it was run: as §1

VRE 1002 = test: SYTOX green (SG) uptake assay and bacterial viability; assay type: cell-based, Enterococcus
Procedure: To discern the pore-forming ability of modified peptide in comparison with melittin, the SYTOX green (SG) uptake assay was performed upon exposure of the peptides and their bactericidal properties were determined. […] Therefore the fluorescence intensity is taken to be proportional to the degree of cell membrane disruption caused by test peptides.

red blood cells = conditions: cited from earlier work
[2] = tested on: Vancomycin-resistant Enterococcus (VRE); conditions: VRE (n = 21 strains), Table 5
Procedure: (§2) MIC of cationic polymers and polypeptide were tested in accordance with the Clinical and Laboratory Standards Institute (CLSI) guidelines against a panel of antibiotic-susceptible/-resistant bacteria, yeasts and fungal strains. Bacterial and yeast strains were cultured on tryptic soy agar (TSA) and Sabaroud dextrose agar (SDA) plates (Neogen Corporation, MI, USA) overnight respectively. Inocula in Mueller-Hinton broth (MHB) for bacteria and SD broth for C. albicans (Beckton Dickinson, MD, USA) were prepared at 0.5 McFarland. The suspensions were then diluted to a final concentration of 10^5 CFU/ml in a 96-well microtitre plate (SPL Life Sciences Co., Ltd, Korea). […] The antimicrobial activities were compared with topical antiseptic agents, BAK and CHX. A similar protocol was used to determine the MIC of εPL against antibiotic-resistant pathogens. MIC of the polymers and polypeptides against Fusarium strains was determined in full strength RPMI-1640 buffer. Fungal spores were recovered from a 5-day old culture on a potato dextrose agar and diluted to a concentration of 10^5 spores/ml in 0.9% saline solution. A further 50-fold dilution was done in RPMI-1640 buffer and 100 μl of the inoculum was added to 96 well plates containing an equal volume of test peptides at 2-fold serial dilutions. 200 μl of inoculum without any additives and buffer alone served as positive and negative controls, respectively. The plate was then incubated at 30° C. for 48 h. The absorbance value was measured at 600 nm as before and the lowest concentration of the peptide which inhibited 90% growth was reported. All MIC determinations were performed in duplicates.
(§3) MICs of polymers/antibiotics were determined using the microdilution method in 96 well microtitre plates (SPL Life Sciences Co., Ltd, Korea), following the guidelines of Clinical and Laboratory Standards Institute (CLSI) document M100-S18. Briefly, polymers (1-512 μg/ml) or antibiotics were dissolved in appropriate media (Mueller Hinton broth, MHB for bacteria; Sabaroud's Dextrose (SD) broth for yeasts and RPMI buffer for Fusarium strains) and 100 μl of this was then mixed with an equal volume of microbial inoculum (OD600=˜0.08) in the same media and shaken in a closed incubator.

C. tropicalis = C. tropicalis (n = 9), Table 5
Procedure: as §2, §3

B. cereus ATCC 11778 = conditions: B. cereus ATCC 11778, Table 5
Procedure: as §2, §3

C. albicans = tested on: C. albicans
Procedure: as §2, §3

C. parapsilosis = conditions: C. parpsilosis (n = 9), Table 5
Procedure: as §2, §3

Question: Which “MIC (range against a number of micro-organisms)” value ([1]; at 1 - 4 × 10^5 CFU/mL, reference 4) does the source give for `CC[C@H](C)[C@H](NC(=O)CN)C(=O)NCC(=O)N[C@@H](C)C(=O)N[C@H](C(=O)N[C@@H](CC(C)C)C(=O)N[C@@H](CCCCN)C(=O)N[C@H](C(=O)N[C@@H](CC(C)C)C(=O)N[C@H](C(=O)N[C@H](C(=O)NCC(=O)N[C@@H](CC(C)C)C(=O)N1CCC[C@H]1C(=O)N[C@@H](C)C(=O)N[C@@H](CC(C)C)C(=O)N[C@H](C(=O)N[C@@H](CO)C(=O)N[C@@H](Cc1c[nH]c2ccccc12)C(=O)N[C@H](C(=O)N[C@@H](CCCCN)C(=O)N[C@@H](CCCNC(=N)N)C(=O)N[C@@H](CCCCN)C(=O)N[C@@H](CCCNC(=N)N)C(=O)N[C@@H](CCC(N)=O)C(=O)N[C@@H](CCC(N)=O)C(N)=O)[C@@H](C)CC)[C@@H](C)CC)[C@@H](C)O)[C@@H](C)O)C(C)C)C(C)C` [Melittin] here?
Answer: Its value is 0.2 - 3 μM at 1 -.

Question: What about the “MIC (range against a number of micro-organisms)” value ([1]; at 1 × 10^6 CFU/mL, reference 6) of the same compound?
Answer: The value was 0.5 - 8 μM at.

Question: And the “MIC (range against a number of micro-organisms)” value ([1]; at 7.5 × 10^5 CFU/mL, reference 8)?
Answer: The value was 3.9 - 31.3 μM at.

Question: What about the MIC90 (A. baumannii; 90% of strains susceptible) of the same compound?
Answer: Its MIC90 is “(MIC90 = 4)^2 μg/ml”.

Question: And the MIC (A. baumannii; range)?
Answer: The MIC was 2 to 4 µg/mL.

Question: And the MIC (E. cloacae complex; E. cloacae complex 6780, Table 5)?
Answer: The MIC was 8 µg/mL (≈ 2.81 µM).

Question: And the MIC (E. cloacae complex; E. cloacae complex 44095, Table 5)?
Answer: Its MIC is 8 µg/mL (≈ 2.81 µM).

Question: What about the SG uptake (VRE 1002; VRE 1002, at 1×MIC) of the same compound?
Answer: Its SG uptake is 79.2%.

Question: What about the SG uptake (VRE 1002; VRE 1002, at 2×MIC) of the same compound?
Answer: Its SG uptake is 89.7%.

Question: And the Haemolytic activity (red blood cells; at 4 μM, reference 4)?
Answer: The Haemolytic activity was 100% at 4 μM.

Question: What about the Haemolytic activity (red blood cells; at 5 μM, reference 8) of the same compound?
Answer: Its Haemolytic activity is 50% at 5 μM.

Question: And the Haemolytic activity (red blood cells; at 10 μM, reference 6)?
Answer: Its Haemolytic activity is greater than 80% at 10 μM.

Question: What about the MIC90 ([2]; 90% of strains susceptible) of the same compound?
Answer: Its MIC90 is “(MIC90 = 8)^2 μg/ml”.

Question: What about the MIC ([2]; range) of the same compound?
Answer: The MIC was 0.5 to 8 µg/mL.

Question: What about the MIC (C. tropicalis) of the same compound?
Answer: The MIC was 8 to 64 µg/mL.

Question: What about the MIC (B. cereus ATCC 11778) of the same compound?
Answer: The MIC was 8 µg/mL (≈ 2.81 µM).

Question: And the MIC (C. albicans; C. albicans (n = 5), Table 5)?
Answer: The MIC was 2 to 4 µg/mL.

Question: What about the “MIC against C. albicans (n = 5)” value (C. albicans; Table 4, range over 5 strains) of the same compound?
Answer: Its value is 2 to 4 µg/mL.

Question: What about the MIC (C. parapsilosis) of the same compound?
Answer: The MIC was 16 to 64 µg/mL.
